Test results reported in US12077503B2, “Substituted cyclic amides and their use as herbicides” (FMC CORPORATION, priority 2015, dated 2024).

Assays:
Assay in all cases: Test C preemergence
Type in all cases: in vivo
[1] = system: ragweed (common ragweed, Ambrosia elatior); conditions: for Plant response rating, Ragweed: scale 0 to 100, 0 no effect, 100 complete control
In short: (§1)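 After treatment with surfactant-containing formulations, either preemergence to seeds in loam-sand soil or postemergence to potted seedlings at 2–18 cm, plants were kept 13–15 d in a greenhouse. Observers then compared them with controls and assigned ratings, 0 signifying no effect and 100 complete control.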

[2] = system: barnyardgrass (Echinochloa crus-galli); conditions: for Plant response rating, Barnyardgrass: scale 0 to 100, 0 no effect, 100 complete control
In short: as §1

[3] = system: pigweed (Amaranthus retroflexus); conditions: for Plant response rating, Pigweed: scale 0 to 100, 0 no effect, 100 complete control
In short: as §1

[4] = system: ryegrass, Italian (Italian ryegrass, Lolium multiflorum); conditions: for Plant response rating, Ryegrass, Italian: scale 0 to 100, 0 no effect, 100 complete control
In short: as §1

[5] = system: velvetleaf (Abutilon theophrasti); conditions: for Plant response rating, Velvetleaf: scale 0 to 100, 0 no effect, 100 complete control
In short: as §1

[6] = system: morningglory (Ipomoea coccinea); conditions: for Plant response rating, Morningglory: scale 0 to 100, 0 no effect, 100 complete control
In short: as §1

[7] = system: johnsongrass (Sorghum halepense); conditions: for Plant response rating, Johnsongrass: scale 0 to 100, 0 no effect, 100 complete control
In short: as §1

[8] = system: foxtail, giant (giant foxtail, Setaria faberii); conditions: for Plant response rating, Foxtail, Giant: scale 0 to 100, 0 no effect, 100 complete control
In short: as §1

[9] = system: blackgrass (Alopecurus myosuroides); conditions: for Plant response rating, Blackgrass: scale 0 to 100, 0 no effect, 100 complete control
In short: as §1

[10] = system: Galium (catchweed bedstraw, Galium aparine); conditions: for Plant response rating, Galium: scale 0 to 100, 0 no effect, 100 complete control
In short: as §1

[11] = system: crabgrass, large (large crabgrass, Digitaria sanguinalis); conditions: for Plant response rating, Crabgrass, Large: scale 0 to 100, 0 no effect, 100 complete control
In short: as §1

[12] = system: wheat (winter wheat, Triticum aestivum); conditions: for Plant response rating, Wheat: scale 0 to 100, 0 no effect, 100 complete control
In short: as §1

[13] = system: nutsedge, yellow (yellow nutsedge, Cyperus esculentus); conditions: for Plant response rating, Nutsedge, Yellow: scale 0 to 100, 0 no effect, 100 complete control
In short: as §1

[14] = system: lambsquarters (Chenopodium album); conditions: for Plant response rating, Lambsquarters: scale 0 to 100, 0 no effect, 100 complete control
In short: as §1

[15] = system: waterhemp (common waterhemp, Amaranthus rudis); conditions: for Plant response rating, Waterhemp: scale 0 to 100, 0 no effect, 100 complete control
In short: as §1

[16] = system: oilseed rape (Brassica napus); conditions: for Plant response rating, Oilseed Rape: scale 0 to 100, 0 no effect, 100 complete control
In short: as §1

corn (Zea mays) = conditions: for Plant response rating, Corn: scale 0 to 100, 0 no effect, 100 complete control
In short: as §1

[17] = 31 g ai/ha, 0 is no effect, 100 is complete control

CN1CC(c2cccc(C(F)(F)F)c2)C(C(=O)Nc2cccc(F)c2F)C1=O (centres unmarked) [Compound 636]
Plant response rating (scale of 0 to 100), Ragweed [1, 17]: 20
Plant response rating, Ragweed ([1]; 62 g ai/ha): 65
Plant response rating, Ragweed ([1]; 125 g ai/ha): 65
Plant response rating, Ragweed ([1]; 250 g ai/ha): 80
Plant response rating (scale of 0 to 100), Barnyardgrass [2, 17]: 90
Plant response rating, Barnyardgrass ([2]; 62 g ai/ha): 90
Plant response rating, Barnyardgrass ([2]; 125 g ai/ha): 95
Plant response rating, Barnyardgrass ([2]; 250 g ai/ha): 95
Plant response rating (scale of 0 to 100), Pigweed [3, 17]: 60
Plant response rating, Pigweed ([3]; 62 g ai/ha): 70
Plant response rating, Pigweed ([3]; 125 g ai/ha): 80
Plant response rating, Pigweed ([3]; 250 g ai/ha): 85
Plant response rating (scale of 0 to 100), Ryegrass, Italian [4, 17]: 70
Plant response rating, Ryegrass, Italian ([4]; 62 g ai/ha): 30
Plant response rating, Ryegrass, Italian ([4]; 125 g ai/ha): 50
Plant response rating, Ryegrass, Italian ([4]; 250 g ai/ha): 90
Plant response rating (scale of 0 to 100), Velvetleaf [5, 17]: 5
Plant response rating, Velvetleaf ([5]; 62 g ai/ha): 50
Plant response rating, Velvetleaf ([5]; 125 g ai/ha): 55
Plant response rating, Velvetleaf ([5]; 250 g ai/ha): 55
Plant response rating (scale of 0 to 100), Morningglory [6, 17]: 5
Plant response rating, Morningglory ([6]; 62 g ai/ha): 25
Plant response rating, Morningglory ([6]; 125 g ai/ha): 35
Plant response rating, Morningglory ([6]; 250 g ai/ha): 65
Plant response rating (scale of 0 to 100), Johnsongrass [7, 17]: 80
Plant response rating, Johnsongrass ([7]; 62 g ai/ha): 85
Plant response rating, Johnsongrass ([7]; 125 g ai/ha): 85
Plant response rating, Johnsongrass ([7]; 250 g ai/ha): 90
Plant response rating (scale of 0 to 100), Foxtail, Giant [8, 17]: 85
Plant response rating, Foxtail, Giant ([8]; 62 g ai/ha): 90
Plant response rating, Foxtail, Giant ([8]; 125 g ai/ha): 90
Plant response rating, Foxtail, Giant ([8]; 250 g ai/ha): 90
Plant response rating (scale of 0 to 100), Blackgrass [9, 17]: 90
Plant response rating, Blackgrass ([9]; 62 g ai/ha): 85
Plant response rating, Blackgrass ([9]; 125 g ai/ha): 90
Plant response rating, Blackgrass ([9]; 250 g ai/ha): 90
Plant response rating (scale of 0 to 100), Galium [10, 17]: 85
Plant response rating, Galium ([10]; 62 g ai/ha): 85
Plant response rating, Galium ([10]; 125 g ai/ha): 90
Plant response rating, Galium ([10]; 250 g ai/ha): 90
Plant response rating (scale of 0 to 100), Crabgrass, Large [11, 17]: 95
Plant response rating, Crabgrass, Large ([11]; 62 g ai/ha): 98
Plant response rating, Crabgrass, Large ([11]; 125 g ai/ha): 100
Plant response rating, Crabgrass, Large ([11]; 250 g ai/ha): 100
Plant response rating (scale of 0 to 100), Wheat [12, 17]: 35
Plant response rating, Wheat ([12]; 62 g ai/ha): 45
Plant response rating, Wheat ([12]; 125 g ai/ha): 65
Plant response rating, Wheat ([12]; 250 g ai/ha): 75
Plant response rating (scale of 0 to 100), Nutsedge, Yellow [13, 17]: 0
Plant response rating, Nutsedge, Yellow ([13]; 62 g ai/ha): 75
Plant response rating, Nutsedge, Yellow ([13]; 125 g ai/ha): 0
Plant response rating, Nutsedge, Yellow ([13]; 250 g ai/ha): 60
Plant response rating (scale of 0 to 100), Lambsquarters [14, 17]: 40
Plant response rating, Lambsquarters ([14]; 62 g ai/ha): 40
Plant response rating, Lambsquarters ([14]; 125 g ai/ha): 55
Plant response rating, Lambsquarters ([14]; 250 g ai/ha): 65
Plant response rating (scale of 0 to 100), Waterhemp [15, 17]: 65
Plant response rating, Waterhemp ([15]; 62 g ai/ha): 75
Plant response rating, Waterhemp ([15]; 125 g ai/ha): 85
Plant response rating, Waterhemp ([15]; 250 g ai/ha): 85
Plant response rating (scale of 0 to 100), Oilseed Rape [16, 17]: 80
Plant response rating, Oilseed Rape ([16]; 62 g ai/ha): 60
Plant response rating, Oilseed Rape ([16]; 125 g ai/ha): 85
Plant response rating, Oilseed Rape ([16]; 250 g ai/ha): 90
Plant response rating (scale of 0 to 100), Corn (corn (Zea mays); [17]): 60
Plant response rating, Corn (corn (Zea mays); 62 g ai/ha): 80
Plant response rating, Corn (corn (Zea mays); 125 g ai/ha): 85
Plant response rating, Corn (corn (Zea mays); 250 g ai/ha): 90
